{"source": "patent US20080009418A1", "about": "“Selective Inhibitors” (Alchemia LTD., priority 2004, published 2008)", "key": {"[1]": {"target": "T1, Human μ-opioid (MOP) (Homo sapiens, UniProt P35372)", "T1 construct": "purchased Perkin Elmer Biosignal", "T1 sequence (P35372 whole entry)": "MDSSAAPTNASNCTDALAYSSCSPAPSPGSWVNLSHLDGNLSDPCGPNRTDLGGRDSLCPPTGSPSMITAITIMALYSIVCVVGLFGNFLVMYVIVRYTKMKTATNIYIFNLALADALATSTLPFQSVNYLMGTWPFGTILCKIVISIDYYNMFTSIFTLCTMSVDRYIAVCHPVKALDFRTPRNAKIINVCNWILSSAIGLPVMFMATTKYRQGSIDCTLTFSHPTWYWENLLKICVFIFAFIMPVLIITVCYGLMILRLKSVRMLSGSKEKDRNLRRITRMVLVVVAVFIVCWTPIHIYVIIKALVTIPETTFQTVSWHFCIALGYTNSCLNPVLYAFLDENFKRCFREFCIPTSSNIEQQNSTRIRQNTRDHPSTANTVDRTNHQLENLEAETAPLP", "assay": "Radioligand binding, human μ-opioid (MOP) membranes, FlashPlate, [3H]-Naloxone", "settings": "compound at 10 μM, [3H]-Naloxone", "summary_of_the_method": "(§1)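 Cloned human receptor membranes were coated onto FlashPlate wells and incubated with radioligand and compound (added from a 0.5 mM DMSO daughter plate) for 1 hour at room temperature in the dark. Scintillation counting gave percent inhibition, with DMSO defining total and reference ligand defining non-specific binding.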"}, "[2]": {"target": "T2, Human melanocortin (MC5) (Homo sapiens, UniProt P33032)", "T2 construct": "purchased Perkin Elmer Biosignal", "T2 sequence (P33032 whole entry)": "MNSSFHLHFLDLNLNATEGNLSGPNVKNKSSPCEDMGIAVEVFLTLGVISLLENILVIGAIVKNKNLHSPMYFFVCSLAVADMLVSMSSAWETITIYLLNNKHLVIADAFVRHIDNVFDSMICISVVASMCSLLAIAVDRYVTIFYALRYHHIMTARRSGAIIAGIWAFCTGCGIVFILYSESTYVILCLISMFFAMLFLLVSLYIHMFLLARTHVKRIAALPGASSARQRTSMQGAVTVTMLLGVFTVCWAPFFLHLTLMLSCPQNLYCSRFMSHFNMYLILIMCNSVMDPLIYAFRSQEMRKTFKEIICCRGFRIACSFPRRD", "assay": "Radioligand binding, human melanocortin MC5 membranes, FlashPlate, [125I]-NDP-αMSH", "settings": "compound at 10 μM; [125I]-NDP-αMSH", "summary_of_the_method": "as §1"}, "[3]": {"target": "T3, Human κ-Opioid (KOP) (Homo sapiens, UniProt P41145)", "T3 construct": "purchased Perkin Elmer Biosignal", "T3 sequence (P41145 whole entry)": "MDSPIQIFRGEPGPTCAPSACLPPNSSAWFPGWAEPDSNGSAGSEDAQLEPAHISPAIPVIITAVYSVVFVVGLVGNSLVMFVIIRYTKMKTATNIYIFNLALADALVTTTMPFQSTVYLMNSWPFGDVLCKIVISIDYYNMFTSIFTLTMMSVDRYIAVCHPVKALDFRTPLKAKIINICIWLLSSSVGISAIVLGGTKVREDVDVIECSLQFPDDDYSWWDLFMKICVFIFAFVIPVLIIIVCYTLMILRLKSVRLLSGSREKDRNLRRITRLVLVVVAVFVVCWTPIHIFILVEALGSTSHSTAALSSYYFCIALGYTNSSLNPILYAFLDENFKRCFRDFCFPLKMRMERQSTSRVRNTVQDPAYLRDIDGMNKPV", "assay": "Radioligand binding, human κ-opioid (KOP) membranes, filtration, [3H]-Diprenorphine", "settings": "compound at 10 μM; [3H]-Diprenorphine", "summary_of_the_method": "(§2)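 Membranes from cloned human receptors were incubated with compound and radioligand for 1 hour at room temperature. Bound ligand was collected on 0.3% PEI-soaked filters, washed with cold 50 mM Tris-HCl pH 7.4, and counted by scintillation. Percent inhibition was computed against DMSO totals and reference-ligand nonspecific wells.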"}, "[4]": {"target": "T4, Mouse urotensin (mUR2) (Mus musculus, UniProt Q8VIH9)", "T4 construct": "purchased Perkin Elmer Biosignal", "T4 sequence (Q8VIH9 1-385)": "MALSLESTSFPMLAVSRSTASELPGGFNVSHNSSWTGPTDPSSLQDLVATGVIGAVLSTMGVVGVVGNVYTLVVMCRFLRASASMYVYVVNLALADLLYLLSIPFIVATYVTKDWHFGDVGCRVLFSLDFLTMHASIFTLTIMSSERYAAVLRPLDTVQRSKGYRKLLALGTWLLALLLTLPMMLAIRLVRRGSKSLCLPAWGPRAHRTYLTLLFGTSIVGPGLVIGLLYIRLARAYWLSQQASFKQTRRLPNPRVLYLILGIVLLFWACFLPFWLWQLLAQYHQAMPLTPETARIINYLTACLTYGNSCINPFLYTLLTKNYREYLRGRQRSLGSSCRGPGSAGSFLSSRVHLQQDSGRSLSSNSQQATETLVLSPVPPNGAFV", "assay": "Radioligand binding, mouse urotensin mUR2 membranes, FlashPlate, [125I]-Urotensin II", "settings": "compound at 10 μM; [125I]-Urotensin II", "summary_of_the_method": "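Cloned mouse urotensin (mUR2) receptor membranes from Perkin Elmer Biosignal were immobilized in FlashPlate microplates using a proprietary coating. Each well got 19.5 μl buffer, then 0.5 μl of DMSO, reference ligand, or compound. Adding 5 μl of [125I]-Urotensin II, diluted to 5× final concentration in binding buffer, started binding. Plates were sealed with TopSeal-A and incubated 1 hour at room temperature in the dark. Wells were counted for 30 seconds each on a TopCount after a 60-second delay, and percentage inhibition was calculated.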"}, "[5]": {"target": "T5, Human δ-opioid (DOP) (Homo sapiens, UniProt P41143)", "T5 construct": "purchased Perkin Elmer Biosignal", "T5 sequence (P41143 whole entry)": "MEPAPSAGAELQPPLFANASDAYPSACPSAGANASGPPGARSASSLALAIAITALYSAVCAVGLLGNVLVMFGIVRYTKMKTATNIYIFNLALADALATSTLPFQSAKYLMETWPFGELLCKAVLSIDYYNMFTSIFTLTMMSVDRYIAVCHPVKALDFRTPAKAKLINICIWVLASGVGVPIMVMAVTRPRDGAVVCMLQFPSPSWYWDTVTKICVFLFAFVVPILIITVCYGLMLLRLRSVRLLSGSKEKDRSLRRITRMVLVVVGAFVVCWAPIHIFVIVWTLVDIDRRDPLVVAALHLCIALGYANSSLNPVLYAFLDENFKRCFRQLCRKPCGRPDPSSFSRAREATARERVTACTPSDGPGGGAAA", "assay": "Radioligand binding, human δ-opioid (DOP) membranes, FlashPlate, [3H]-Bremazocine", "settings": "compound at 10 μM; [3H]-Bremazocine", "summary_of_the_method": "as §1"}, "[6]": {"target": "T6, Human Melanocortin (MC3) (Homo sapiens, UniProt P41968)", "T6 construct": "purchased Perkin Elmer Biosignal", "T6 sequence (P41968 whole entry)": "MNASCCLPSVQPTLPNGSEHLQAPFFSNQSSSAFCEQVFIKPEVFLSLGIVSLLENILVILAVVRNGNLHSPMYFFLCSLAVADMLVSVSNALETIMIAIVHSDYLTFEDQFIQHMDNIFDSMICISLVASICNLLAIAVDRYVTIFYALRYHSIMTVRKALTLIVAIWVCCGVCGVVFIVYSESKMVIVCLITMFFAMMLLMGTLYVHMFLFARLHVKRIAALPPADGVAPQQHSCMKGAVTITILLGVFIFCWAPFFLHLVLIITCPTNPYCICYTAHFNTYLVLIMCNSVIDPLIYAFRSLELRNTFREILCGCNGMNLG", "assay": "Radioligand binding, human melanocortin MC3 membranes, FlashPlate, [125I]-NDP-αMSH", "settings": "compound at 10 μM; [125I]-NDP-αMSH", "summary_of_the_method": "as §1"}, "[7]": {"target": "T7, Human opioid (ORL1) (Homo sapiens, UniProt P41146)", "T7 construct": "purchased Perkin Elmer Biosignal", "T7 sequence (P41146 whole entry)": "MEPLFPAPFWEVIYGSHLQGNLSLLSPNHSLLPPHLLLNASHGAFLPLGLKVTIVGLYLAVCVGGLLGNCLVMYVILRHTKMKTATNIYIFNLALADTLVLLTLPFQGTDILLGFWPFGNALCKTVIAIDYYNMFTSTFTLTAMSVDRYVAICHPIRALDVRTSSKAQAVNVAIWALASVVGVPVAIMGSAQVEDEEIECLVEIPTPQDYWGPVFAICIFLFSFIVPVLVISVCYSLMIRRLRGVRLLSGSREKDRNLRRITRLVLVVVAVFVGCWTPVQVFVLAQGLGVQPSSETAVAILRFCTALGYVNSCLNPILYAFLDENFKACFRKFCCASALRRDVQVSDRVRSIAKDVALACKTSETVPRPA", "assay": "Radioligand binding, human opioid ORL1 membranes, FlashPlate, [125I]-Nociceptin", "settings": "compound at 10 μM, [125I]-Nociceptin", "summary_of_the_method": "as §1"}, "[8]": {"target": "T8, Human melanin-concentrating hormone (MCH1) (Homo sapiens, UniProt Q99705)", "T8 construct": "purchased Perkin Elmer Biosignal", "T8 sequence (Q99705 whole entry)": "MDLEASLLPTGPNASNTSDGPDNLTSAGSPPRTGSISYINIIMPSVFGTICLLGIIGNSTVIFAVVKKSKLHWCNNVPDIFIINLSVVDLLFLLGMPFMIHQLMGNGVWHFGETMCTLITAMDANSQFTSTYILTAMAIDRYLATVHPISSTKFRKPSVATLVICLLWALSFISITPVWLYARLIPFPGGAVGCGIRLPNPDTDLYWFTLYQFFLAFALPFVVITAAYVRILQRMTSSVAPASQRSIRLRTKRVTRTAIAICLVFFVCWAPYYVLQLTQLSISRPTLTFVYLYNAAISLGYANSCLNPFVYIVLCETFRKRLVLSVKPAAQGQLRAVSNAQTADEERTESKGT", "assay": "Radioligand binding, human melanin-concentrating hormone MCH1 membranes, FlashPlate, [125I]-S36057", "settings": "compound at 10 μM; [125I]-S36057", "summary_of_the_method": "as §1"}, "[9]": {"target": "T9, Human Melanocortin (MC4) (Homo sapiens, UniProt P32245)", "T9 construct": "purchased Perkin Elmer Biosignal", "T9 sequence (P32245 whole entry)": "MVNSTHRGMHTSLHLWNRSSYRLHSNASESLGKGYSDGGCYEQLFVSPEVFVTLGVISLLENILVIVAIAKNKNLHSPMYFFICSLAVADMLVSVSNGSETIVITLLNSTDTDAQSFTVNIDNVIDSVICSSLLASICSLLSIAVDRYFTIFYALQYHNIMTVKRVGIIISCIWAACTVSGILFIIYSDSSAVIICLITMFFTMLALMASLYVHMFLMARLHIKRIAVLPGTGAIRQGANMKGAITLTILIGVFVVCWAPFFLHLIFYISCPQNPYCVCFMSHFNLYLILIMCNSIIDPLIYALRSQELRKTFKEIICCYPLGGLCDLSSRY", "assay": "Radioligand binding, human melanocortin MC4 membranes, FlashPlate, [125I]-NDP-αMSH", "settings": "compound at 10 μM, [125I]-NDP-αMSH", "summary_of_the_method": "as §1"}, "[10]": {"target": "T10, Human neuropeptide Y (NPY-Y1) (Homo sapiens, UniProt P25929)", "T10 construct": "purchased Perkin Elmer Biosignal", "T10 sequence (P25929 1-384)": "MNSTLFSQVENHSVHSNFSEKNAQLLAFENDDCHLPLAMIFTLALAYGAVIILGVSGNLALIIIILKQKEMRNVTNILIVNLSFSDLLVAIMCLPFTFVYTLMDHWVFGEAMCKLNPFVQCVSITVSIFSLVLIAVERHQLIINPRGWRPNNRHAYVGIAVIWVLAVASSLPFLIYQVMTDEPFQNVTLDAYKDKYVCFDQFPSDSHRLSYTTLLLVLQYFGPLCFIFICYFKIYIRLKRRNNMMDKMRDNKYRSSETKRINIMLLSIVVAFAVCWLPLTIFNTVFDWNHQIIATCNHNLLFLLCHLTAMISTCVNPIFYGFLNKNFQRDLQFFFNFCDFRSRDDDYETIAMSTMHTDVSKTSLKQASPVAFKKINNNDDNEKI", "assay": "Radioligand binding, human neuropeptide Y NPY-Y1 membranes, FlashPlate, [125I]-PYY", "settings": "compound at 10 μM; [125I]-PYY", "summary_of_the_method": "as §1"}, "[11]": {"target": "T11, Human neurokinin (NK1) (Homo sapiens, UniProt P25103)", "T11 construct": "purchased Perkin Elmer Biosignal", "T11 sequence (P25103 whole entry)": "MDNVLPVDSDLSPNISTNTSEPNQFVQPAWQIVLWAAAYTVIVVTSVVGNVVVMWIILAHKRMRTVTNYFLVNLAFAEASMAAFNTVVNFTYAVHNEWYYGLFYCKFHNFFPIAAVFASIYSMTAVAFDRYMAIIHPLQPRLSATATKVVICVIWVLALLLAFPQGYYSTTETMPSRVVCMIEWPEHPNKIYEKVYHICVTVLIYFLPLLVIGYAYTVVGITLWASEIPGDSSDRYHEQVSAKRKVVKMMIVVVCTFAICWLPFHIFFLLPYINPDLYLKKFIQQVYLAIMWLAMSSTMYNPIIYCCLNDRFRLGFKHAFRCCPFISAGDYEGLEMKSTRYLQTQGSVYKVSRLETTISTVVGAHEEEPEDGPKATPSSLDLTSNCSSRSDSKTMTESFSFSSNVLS", "assay": "Radioligand binding, human neurokinin NK1 membranes, filtration, [125I]-Substance P", "settings": "compound at 10 μM, [125I]-Substance P", "summary_of_the_method": "as §2"}}}
{"molecule": "N=C(N)NCCC(=O)N[C@H]1C(OCc2ccc(Cl)cc2)O[C@H](COCc2ccc(Cl)cc2)[C@@H](O)[C@@H]1OCc1ccc2ccccc2c1", "note": "(stereo partly drawn) [compound 532]", "values": [{"measurement": "A7: inhibition of radioligand binding, human μ-opioid (MOP)", "setting": "[1]", "result": "+ (“+” indicates greater than 50% inhibition at 10 μM)"}, {"measurement": "A5: inhibition of radioligand binding, human melanocortin (MC5)", "setting": "[2]", "result": "+ (“+” indicates greater than 50% inhibition at 10 μM)"}, {"measurement": "A2: inhibition of radioligand binding, human κ-opioid (KOP)", "setting": "[3]", "result": "+ (“+” indicates greater than 50% inhibition at 10 μM)"}, {"measurement": "A11: inhibition of radioligand binding, mouse urotensin (mUR2)", "setting": "[4]", "result": "− (“−” indicates less than 50% inhibition at 10 μM)"}, {"measurement": "A1: inhibition of radioligand binding, human δ-opioid (DOP)", "setting": "[5]", "result": "− (“−” indicates less than 50% inhibition at 10 μM)"}, {"measurement": "A3: inhibition of radioligand binding, human melanocortin (MC3)", "setting": "[6]", "result": "+ (“+” indicates greater than 50% inhibition at 10 μM)"}, {"measurement": "A10: inhibition of radioligand binding, human opioid (ORL1)", "setting": "[7]", "result": "+ (“+” indicates greater than 50% inhibition at 10 μM)"}, {"measurement": "A6: inhibition of radioligand binding, human melanin-concentrating hormone (MCH1)", "setting": "[8]", "result": "+ (“+” indicates greater than 50% inhibition at 10 μM)"}, {"measurement": "A4: inhibition of radioligand binding, human melanocortin (MC4)", "setting": "[9]", "result": "+ (“+” indicates greater than 50% inhibition at 10 μM)"}, {"measurement": "A9: inhibition of radioligand binding, human neuropeptide Y (NPY-Y1)", "setting": "[10]", "result": "− (“−” indicates less than 50% inhibition at 10 μM)"}, {"measurement": "A8: inhibition of radioligand binding, human neurokinin (NK1)", "setting": "[11]", "result": "+ (“+” indicates greater than 50% inhibition at 10 μM)"}]}
{"molecule": "NCCC(=O)NC1C(OCc2ccc(Cl)cc2)OC(COCc2ccc(Cl)cc2)C(O)C1OCc1ccccc1", "note": "(single isomer, unassigned) [compound 487]", "values": [{"measurement": "A7: inhibition of radioligand binding, human μ-opioid (MOP)", "setting": "[1]; 10 µM", "result": "+ (“+” indicates greater than 50% inhibition at 10 μM)"}, {"measurement": "A5: inhibition of radioligand binding, human melanocortin (MC5)", "setting": "[2]", "result": "+ (“+” indicates greater than 50% inhibition at 10 μM)"}, {"measurement": "A2: inhibition of radioligand binding, human κ-opioid (KOP)", "setting": "[3]", "result": "− (“−” indicates less than 50% inhibition at 10 μM)"}, {"measurement": "A11: inhibition of radioligand binding, mouse urotensin (mUR2)", "setting": "[4]", "result": "− (“−” indicates less than 50% inhibition at 10 μM)"}, {"measurement": "A1: inhibition of radioligand binding, human δ-opioid (DOP)", "setting": "[5]", "result": "− (“−” indicates less than 50% inhibition at 10 μM)"}, {"measurement": "A3: inhibition of radioligand binding, human melanocortin (MC3)", "setting": "[6]", "result": "− (“−” indicates less than 50% inhibition at 10 μM)"}, {"measurement": "A10: inhibition of radioligand binding, human opioid (ORL1)", "setting": "[7]; 10 µM", "result": "− (“−” indicates less than 50% inhibition at 10 μM)"}, {"measurement": "A6: inhibition of radioligand binding, human melanin-concentrating hormone (MCH1)", "setting": "[8]", "result": "− (“−” indicates less than 50% inhibition at 10 μM)"}, {"measurement": "A4: inhibition of radioligand binding, human melanocortin (MC4)", "setting": "[9]; 10 µM", "result": "− (“−” indicates less than 50% inhibition at 10 μM)"}, {"measurement": "A9: inhibition of radioligand binding, human neuropeptide Y (NPY-Y1)", "setting": "[10]", "result": "− (“−” indicates less than 50% inhibition at 10 μM)"}, {"measurement": "A8: inhibition of radioligand binding, human neurokinin (NK1)", "setting": "[11]; 10 µM", "result": "− (“−” indicates less than 50% inhibition at 10 μM)"}]}
{"molecule": "CSC1OC(COCc2ccccc2)C(O)C(OCc2ccc3ccccc3c2)C1NC(=O)CCCN", "note": "(stereo not drawn) [compound 304]", "values": [{"measurement": "A7: inhibition of radioligand binding, human μ-opioid (MOP)", "setting": "[1]", "result": "− (“−” indicates less than 50% inhibition at 10 μM)"}, {"measurement": "A5: inhibition of radioligand binding, human melanocortin (MC5)", "setting": "[2]", "result": "− (“−” indicates less than 50% inhibition at 10 μM)"}, {"measurement": "A2: inhibition of radioligand binding, human κ-opioid (KOP)", "setting": "[3]", "result": "− (“−” indicates less than 50% inhibition at 10 μM)"}, {"measurement": "A11: inhibition of radioligand binding, mouse urotensin (mUR2)", "setting": "[4]", "result": "− (“−” indicates less than 50% inhibition at 10 μM)"}, {"measurement": "A1: inhibition of radioligand binding, human δ-opioid (DOP)", "setting": "[5]", "result": "− (“−” indicates less than 50% inhibition at 10 μM)"}, {"measurement": "A3: inhibition of radioligand binding, human melanocortin (MC3)", "setting": "[6]", "result": "− (“−” indicates less than 50% inhibition at 10 μM)"}, {"measurement": "A10: inhibition of radioligand binding, human opioid (ORL1)", "setting": "[7]", "result": "− (“−” indicates less than 50% inhibition at 10 μM)"}, {"measurement": "A6: inhibition of radioligand binding, human melanin-concentrating hormone (MCH1)", "setting": "[8]", "result": "− (“−” indicates less than 50% inhibition at 10 μM)"}, {"measurement": "A4: inhibition of radioligand binding, human melanocortin (MC4)", "setting": "[9]", "result": "− (“−” indicates less than 50% inhibition at 10 μM)"}, {"measurement": "A9: inhibition of radioligand binding, human neuropeptide Y (NPY-Y1)", "setting": "[10]", "result": "− (“−” indicates less than 50% inhibition at 10 μM)"}, {"measurement": "A8: inhibition of radioligand binding, human neurokinin (NK1)", "setting": "[11]", "result": "+ (“+” indicates greater than 50% inhibition at 10 μM)"}]}
